{
  "source": "patent US20230257385A1",
  "about": "“SALT AND SOLID FORMS OF TABERNANTHALOG” (priority 2021, published 2023)",
  "key": {"[1]": {"assay": "Heat-up/cool down (HUCD) crystallization of the monofumarate salt (Experiment Reference 11)", "assay_type": "physicochemical", "details": "for XRPD (oven dried): form of product from HUCD crystallization of tabernanthalog fumarate Sample Reference 1 (Pattern #1), solvents per sample as in E1; for Observations (t = 0 @ T = 20° C.): input tabernanthalog fumarate Sample Reference 1 (Pattern #1), Solvent A/B: 11-A acetone/water, 11-B acetonitrile/water, 11-C butanol/water, 11-D tBME/methanol, 11-E DCM/methanol, 11-F ethanol/water, 11-G methyl acetate/water/methanol, 11-H 2-propanol/water, 11-1 methanol, 11-J MEK/water, 11-K 2-MeTHF/methanol, 11-L THF/water, 11-M toluene/methanol, 11-N water, 11-O dioxane/water, 11-P CPME/methan", "method": "Separate portions of the tabernanthalog monofumarate salt (Pattern #1, Sample Reference 1, ca 75 mg, 1.0 wt.) were charged to separate vessels. The appropriate solvents (750 μl, 10.0 vol, refer to Table 106) were charged to the relevant vessels and subsequent charges of the appropriate co-solvent were made to accomplish dissolution at reflux. The solutions were cooled to 18 to 23° C. and allowed to stand undisturbed, until crystallization was judged complete. After this time the products were isolated by centrifugation, washed with recycled maturation solvent, dried under reduced pressure at 40° C. and analyzed by XRPD for evidence of alternative crystalline forms."}, "[2]": {"assay": "Examination of variability of fusion temperature of sorbate Form A (DSC)", "assay_type": "physicochemical", "method": "The factors that were assessed to explain the observed variability in fusion temperature found amongst Form A samples were sample loading, preferred orientation and particle size/homogeneity (Table 271). A weak relationship between sample loading and melt onset was observed, the remainder of the factors examined, appeared to be unrelated.\nDSC data were collected from 25 to 220C at a scan rate of at 10° C. min^−1 (Table 292)."}, "[3]": {"details": "DSC 25-220° C. at 10° C. min^−1, batches of sorbate salt Form A"}, "[4]": {"details": "DSC 25 to 220C at 10° C. min−1, tabernanthalog sorbate Form A samples"}},
  "data": [
    {"smiles": "COc1ccc2c3c([nH]c2c1)CCN(C)CC3.O=C(O)/C=C/C(=O)O", "note": "[Sample 11-A]", "values": [
      {"measurement": "XRPD (oven dried)", "setting": "[1]", "result": "Pattern #6a"},
      {"measurement": "Observations (t = 0 @ T = 20° C.)", "setting": "[1]", "result": "suspension"}
    ]},
    {"smiles": "COc1ccc2c3c([nH]c2c1)CCN(C)CC3.O=C(O)/C=C/C(=O)O", "note": "[Sample 11-1]", "values": [
      {"measurement": "XRPD (oven dried)", "setting": "[1]", "result": "Pattern #6b"},
      {"measurement": "Observations (t = 0 @ T = 20° C.)", "setting": "[1]", "result": "suspension"}
    ]},
    {"smiles": "COc1ccc2c3c([nH]c2c1)CCN(C)CC3.O=C(O)/C=C/C(=O)O", "note": "[Sample 11-G]", "values": [
      {"measurement": "XRPD (oven dried)", "setting": "[1]", "result": "Pattern #1"},
      {"measurement": "Observations (t = 0 @ T = 20° C.)", "setting": "[1]", "result": "suspension"}
    ]},
    {"smiles": "COc1ccc2c3c([nH]c2c1)CCN(C)CC3.O=C(O)/C=C/C(=O)O", "note": "[Sample 11-O]", "values": [
      {"measurement": "XRPD (oven dried)", "setting": "[1]", "result": "Pattern #6a"},
      {"measurement": "Observations (t = 0 @ T = 20° C.)", "setting": "[1]", "result": "suspension"}
    ]},
    {"smiles": "C/C=C/C=C/C(=O)O.COc1ccc2c3c([nH]c2c1)CCN(C)CC3", "note": "[Experiment 7-Sample A neat]", "values": [
      {"measurement": "Endset", "setting": "[2]; [3]", "result": 148.5, "unit": "°C"},
      {"measurement": "melt enthalpy", "setting": "[2]; [3]", "result": "−122.5", "unit": "Jg^−1"},
      {"measurement": "melt onset", "setting": "[2]; [3]", "result": 144.4, "unit": "°C"},
      {"measurement": "peak", "setting": "[2]; [3]", "result": 146.8, "unit": "°C"},
      {"measurement": "melt enthalpy", "setting": "[2]; [4]", "result": "−122.47", "unit": "Jg-1"},
      {"measurement": "melt onset", "setting": "[2]; [4]", "result": 144.39, "unit": "°C"},
      {"measurement": "Endset", "setting": "[2]; DSC melt endset, 25 to 220C at 10° C. min−1, tabernanthalog sorbate Form A samples", "result": 148.53, "unit": "°C"},
      {"measurement": "peak", "setting": "[2]; DSC melt peak, 25 to 220C at 10° C. min−1, tabernanthalog sorbate Form A samples", "result": 146.83, "unit": "°C"}
    ]},
    {"smiles": "COc1ccc2c3c([nH]c2c1)CCN(C)CC3.O=C(O)/C=C/C(=O)O", "note": "[Sample 11-L]", "values": [
      {"measurement": "XRPD (oven dried)", "setting": "[1]", "result": "Pattern #6a"},
      {"measurement": "Observations (t = 0 @ T = 20° C.)", "setting": "[1]", "result": "solution"}
    ]},
    {"smiles": "COc1ccc2c3c([nH]c2c1)CCN(C)CC3.O=C(O)/C=C/C(=O)O", "note": "[Sample 11-H]", "values": [
      {"measurement": "XRPD (oven dried)", "setting": "[1]", "result": "Pattern #6a"},
      {"measurement": "Observations (t = 0 @ T = 20° C.)", "setting": "[1]", "result": "cloudy"}
    ]},
    {"smiles": "COc1ccc2c3c([nH]c2c1)CCN(C)CC3.O=C(O)/C=C/C(=O)O", "note": "[Sample 11-J]", "values": [
      {"measurement": "XRPD (oven dried)", "setting": "[1]", "result": "Pattern #6a"},
      {"measurement": "Observations (t = 0 @ T = 20° C.)", "setting": "[1]", "result": "suspension"}
    ]},
    {"smiles": "COc1ccc2c3c([nH]c2c1)CCN(C)CC3.O=C(O)/C=C/C(=O)O", "note": "[Sample 11-M]", "values": [
      {"measurement": "XRPD (oven dried)", "setting": "[1]", "result": "Pattern #6b"},
      {"measurement": "Observations (t = 0 @ T = 20° C.)", "setting": "[1]", "result": "suspension"}
    ]},
    {"smiles": "COc1ccc2c3c([nH]c2c1)CCN(C)CC3.O=C(O)/C=C/C(=O)O", "note": "[Sample 11-N]", "values": [
      {"measurement": "XRPD (oven dried)", "setting": "[1]", "result": "Pattern #6a"},
      {"measurement": "Observations (t = 0 @ T = 20° C.)", "setting": "[1]", "result": "suspension"}
    ]}
  ]
}
